Data: the supplement of paper PMC10307832

Compound: COc1cc(Nc2ncc(F)c(Nc3ccc4c(n3)NC(=O)C(C)(C)O4)n2)cc(OC)c1OC [R406] + CC1(C)CCC(c2ccc(Cl)cc2)=C(CN2CCN(c3ccc(C(=O)NS(=O)(=O)c4ccc(N[C@H](CCN5CCOCC5)CSc5ccccc5)c(S(=O)(=O)C(F)(F)F)c4)cc3)CC2)C1 [Navitoclax] (partner 0.5 µM)
Assay: relative viability (nuclei count vs DMSO), 5 days (fraction); higher = more cells survive
Details: first compound 0.8 µM
In short: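 Each reported value is a median over duplicate plates. It expresses relative viability: treated-well nuclei count divided by vehicle-well nuclei count. Lung cancer cell lines in 1536-well plates were dosed by pin tool a day after seeding, alone with one drug or with a fixed anchor-drug dose plus five library-drug doses (not always all listed) in √10 steps, and nuclei were counted after 5 days.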

Cell Line	relative viability
201T	1.17
NCI-H1915	0.789
HCC-827	0.949
LXF-289	1
NCI-H23	1.07
CAL-12T	1.26
NCI-H1651	0.961
EPLC-272H	1.21
NCI-H2228	0.996
NCI-H1355	1.08
NCI-H3122	1.02
NCI-H1437	1.1
NCI-H1755	0.982
NCI-H2023	1.1
HCC-15	0.781
PC-3 [JPC-3]	0.833
EKVX	0.932
LC-2-ad	0.453
NCI-H1975	1.19
SK-LU-1	0.725
NCI-H1944	1.05
RERF-LC-KJ	1.03

Same assay, conditions: first compound 2.53 µM

Cell Line	relative viability
BEN	0.0663
HARA	1.19
HCC-78	0.508
NCI-H322M	0.862
LCLC-97TM1	0.254
NCI-H2009	1.16
A-427	0.572
NCI-H1734	0.813
NCI-H520	0.636
NCI-H2347	0.663
SW 1573	0.794
NCI-H1395	0.881
201T	1.19
NCI-H1915	0.707
HCC-827	0.932
LXF-289	0.931
NCI-H23	0.733

Cell Line	relative viability
CAL-12T	1.05
NCI-H1651	0.769
EPLC-272H	0.63
NCI-H2228	0.628
NCI-H1355	0.542
NCI-H3122	1.02
NCI-H1437	0.997
NCI-H1755	0.573
NCI-H2023	0.888
PC-3 [JPC-3]	0.685
EKVX	0.77
LC-2-ad	0.18
NCI-H1975	0.503
SK-LU-1	0.385
NCI-H1944	0.846
RERF-LC-KJ	0.738

Same assay, conditions: first compound 8 µM

Cell Line	relative viability
BEN	0.0726
HARA	0.453
HCC-78	0.43
NCI-H322M	0.534
LCLC-97TM1	0.462
NCI-H2009	1.03
A-427	0.78
NCI-H460	0.476
NCI-H1734	0.607
NCI-H520	0.251
NCI-H2347	0.529
SW 1573	0.5
NCI-H1395	0.947
201T	1.18
NCI-H1915	0.662
HCC-827	0.489
LXF-289	0.251
NCI-H23	0.518
CAL-12T	1.06
